Measurements published in patent US8642834B2, “Methods for the identification of agents that inhibit mesenchymal-like tumor cells or their formation” (OSI Pharmaceuticals, LLC, priority 2009, dated 2014).
No end group written: not given here.

Key:
[1] = test system: CFPAC-1 cells; experiment: Inhibition of ligand-induced EMT by JAK or MEK inhibitor; format: cell-based, human; conditions: JAK inhibitor 0.25 μM
Protocol: Supernatents were micro-centrifuged at max speed, 4° C. for 10 minutes. […] SDS PAGE was run using a Bis-Tris gel system (Invitrogen NuPAGE) with MOPS buffer (Invitrogen NP0001), transferred onto nitrocellulose using the iBLOT system (Invitrogen) and blocked in PBS-T (0.1% Tween 20), 5% non-fat milk or BSA in guidance with primary Ab supplier requirements. […] Secondary HRP labeled antibodies used were: anti Rabbit IgG HRP (Amersham NA934) 1:5000 dilution; anti Mouse IgG HRP (Sigma A2304) 1:2000 dilution. Membranes were visualized using the Supersignal ELISA Femto Maximum Sensitivity Substrate (Pierce).

[2] = test system: advanced, treatment-refractory NSCLC; conditions: phase III, monotherapy, patients with advanced; cited from earlier work
[3] = test system: pancreatic cancer; conditions: phase III, first-line, in combination with gemcitabine; cited from earlier work
[4] = test system: CFPAC-1 cells; experiment: Induction of EMT by growth factors and cytokines, E-cadherin and vimentin immunoblotting; format: cell-based, human; conditions: CFPAC-1 cells treated 7 days with ligand
Protocol: The CFPAC1 cell line was cultured in DMEM media (Gibco #11960) supplemented with 10% FBS (Sigma), 2 mM L Glutamine (Gibco), at 37° C., 5% CO2. For 7 day treatments, cells were seeded on tissue culture plastic in complete growth media and allowed to attach overnight at cell densities that would provide approximately 60-80% confluence at end of experiment. Ligand and/or inhibitor was added the following day (Day 0) in complete growth media and incubated at 37° C., 5% CO2. Ligand source and concentrations used are as follows: [1] From R&D systems, SDF-1α (stromal derived factor-1 alpha) at 100 ng/ml, TRANCE (TNF-related activation induced cytokine) at 50 ng/ml, FGF1 (fibroblast growth factor acidic) at 10 ng/ml, FGF2 (fibroblast growth factor basic) at 10 ng/ml, BMP4 (bone morphogenetic protein 4) at 100 ng/ml, BMP7 (bone morphogenetic protein 7) at 100 ng/ml, IGF2 (insulin-like growth factor 2) at 100 ng/ml, OSM (Oncostatin M) at 100 ng/ml, NRG1 (Neuregulin-1) at 50 ng/ml, PDGFaa (Platelet derived growth factor a) at 50 ng/ml, PDGFbb (platelet derive growth factor b) at 30 ng/ml, Ang2 (Angiopoeitin 2) at 400 ng/ml, amphiregulin at 100 ng/ml, HMGB 1 (Human high-mobility group box 1 protein) at 50 ng/ml; [2] From Genscript, LIF (Leukemia inhibitory factor) at 20 ng/ml, GM-CSF (Granulocyte macrophage colony stimulating factor) at 25 ng/ml, M-CSF (Macrophage colony stimulating factor) at 50 ng/ml; [3] From Anaspec, PAR1 (Protease activated receptor 1 agonist) at 100 μM; PAR2 (Protease activated receptor 2 agonist; peptide SLIGKV-NH2, Cat. No. 60217-1) at 100 μM; PAR4 (Protease activated receptor […] agonist; peptide AYPGKF-NH2, Cat. No. 60218-1) at 100 μM; [4] From Peprotech, HGF (Hepatocyte Growth Factor) at 100 ng/ml; IL-31 (Interleukin-31) at 50 ng/ml, IL-33 (Interleukin-33) at 50 ng/ml, IL1-a (Interleukin-1 alpha) at 10 ng/ml, CTGF (Connective tissue growth factor) at 20 ng/ml, WISP1 (Wnt-1 inducible signaling pathway protein) at 20 ng/ml, PTHrP ([…] hormone-related protein) at 50 ng/ml, MCP1 (monocyte chemotactic protein-1) at 50 ng/ml; and [5] from Sigma, Fulvestrant at 1 μM. Fresh medium containing ligand and/or inhibitor was added 3-4 days after initial dose, and at Day 7 cells were harvested for western blot analysis.
Cells were harvested by washing once with PBS, and lysing on ice for 10 minutes with scraping (using a Cell Lifter, Corning Inc. #3008) in ice cold RIPA buffer (Sigma R0278) containing Protease inhibitor (Sigma P8340), Phosphatase inhibitors (Sigma P2850, P5726) and 200 μM Sodium Vanadate. Supernatents were micro-centrifuged at max speed, 4° C. for 10 minutes. Protein content was quantitated using the BCA method (Pierce #23225) and samples were normalized to total protein in Laemli buffer and heated at 100° C. for 10 minutes. SDS PAGE was run using a Bis-Tris gel system (Invitrogen NuPAGE) with MOPS buffer (Invitrogen NP0001), transferred onto nitrocellulose using the iBLOT system (Invitrogen) and blocked in PBS-T (0.1% Tween 20), 5% non-fat milk or BSA in guidance with primary Ab supplier requirements. All primary antibodies were incubated overnight at 4° C. in PBS-T (0.1% Tween 20) in either 5% non-fat milk or BSA, diluted to the following working dilutions: anti E Cadherin (Santa Cruz #sc-21791) 1:500 dilution; anti Vimentin (BD Biosciences #550513) 1:2000 dilution;); anti GAPDH HRP conjugate (Santa Cruz sc-25778) 1:1000 dilution; anti β-Actin (Sigma, A5441) 1:10,000 dilution. […]

Row | Molecule | Induction of EMT (E-cadherin down, vimentin up) [4] | further results
1 | CC(C)(C)c1nc2c3cc[nH]c(=O)c3c3cc(F)ccc3c2[nH]1 [JAK inhibitor] | – | Block of morphology change ([1]; CFPAC-1 cells treated with OSM 7 days, light microscopy): blocked the morphology change; Block of EMT process ([1]; OSM-triggered EMT, 7 days, MEK inhibitor 3 μM): could block EMT process
2 | C#Cc1cccc(Nc2ncnc3cc(OCCOC)c(OCCOC)cc23)c1 [erlotinib, [6,7-bis(2-methoxyethoxy)-4-quinazolin-4-yl]-(3-ethynylphenyl) amine] | – | Survival, disease progression, lung cancer-related symptoms [2]: significantly prolonged survival, delayed disease progression and delayed worsening of lung cancer-related symptoms; Survival [3]: improves survival
3 | AYPGKF-NH2 [PAR4 agonist AYPGKF-NH2, reference compound] | Partial EMT | –
4 | IGF2: insulin-like growth factor 2, R&D systems, 100 ng/ml | Partial EMT | –
5 | LIF: Leukemia inhibitory factor, Genscript, 20 ng/ml | Partial EMT | –
6 | SLIGKV-NH2 (UniProt P55085 37-42, looked up, fragment) [PAR2 agonist SLIGKV-NH2, reference compound] | Partial EMT | –
